Series [1] has as its system interscapular BAT. As to the kind of experiment: Re-testing of hits with stepwise dissection and NIR imaging. In kind it is in vivo, mice. Here is the method: Like protein/cell-based screening, hit re-testing experiments were conducted to validate the reliability of this approach. CRANAD-2, -3, LDS 722 and Rhodamine 640 were subjected to re-testing by repeating the above imaging procedure. Images were acquired one hour after probe injection.
Next, stepwise dissection and imaging were performed to track the source of the fluorescence contrast at the interscapular site. Skin and the thin WAT layer that covers BAT were first removed, and then BAT was dissected, and NIR images were captured at each step. […] The signal contribution from BAT (R(BAT)) was roughly estimated using the ratio of fluorescence signals acquired after (F(BAT)) and before (F(intact)) the first step dissection of skin and WAT.

Series [2] relates to interscapular BAT. As to the kind of experiment: Time course and dose optimization of probe signal in BAT area after i.v. injection. The series is classed as in vivo, mice. Here is the method:
(§1) Next the time course of CRANAD-2 and CRANAD-3 accumulation in BAT area was investigated. […] Similarly, the signal of CRANAD-3 reached the uptake peak around one hour, and then gradually washed out (FIG. 8c-d). Accumulation of CRANAD-2 and -3 in BAT was further confirmed with ex vivo histology of the dissected BAT slices, performed as follows. The dissected BAT was fixed with 4% formalin at 4° C. overnight, and then embedded into OCT. BAT tissue was cut into 7 micron thickness slices, washed with PBS buffer, and co-stained with DAPI (Vectra Shield, Vector Lab, Burlingame, Calif.). Images were acquired with fast exposure to capture the dye signal in the oil droplets. To outline cell membrane cell autofluorescence was captured with long exposure after image of the dye signal from oil droplets was already acquired. To further validate the capacity of CRANAD-29 for BAT labeling, ex vivo histological microscopic imaging with CRANAD-29 was conducted. […] Gold standard H&E staining also provided similar images (FIG. 10a). […] The injection dose of CRANAD-29 was optimized, and the fluorescence signal reached its plateau at 0.4 mg/kg (FIG. 11). In the following studies, 0.1 mg/kg dose was used.

Series [3] in a line: Excitation and emission wavelengths of BAT imaging agents. In kind it is physicochemical. Here is the method: In some embodiments, the methods include irradiating the mammal with light of the appropriate wavelength to excite the BAT imaging agent, and detecting emissions therefrom.
Fluorescent dyes were purchased from Exciton Inc. (Dayton, Ohio) and Invitrogen. The reagents used for the synthesis were purchased from Aldrich and used without further purification. Column chromatography was performed on silica gel (SiliCycle Inc., 60 Å, […]) slurry packed into glass columns. 1H, 13C NMR spectra were recorded at 500 MHz and 125 MHz respectively, and reported in ppm downfield from tetramethylsilane. Fluorescence studies were carried out using a F-4500 Fluorescence Spectrophotometer (Hitachi). Mass spectra were obtained at Harvard University, Department of Chemistry Instrumentation Facility. Microscopic images were acquired with Nikon Eclipse 50i microscope. In vivo NIR imaging was performed using the IVIS® Spectrum animal imaging system (Caliper LifeSciences, Perkin Elmer, Hopkinton, Mass.), and data analysis was conducted using LivingImage® 4.2.1 software.

Series [4] deals with interscapular BAT. As to the kind of experiment: Top-down whole-organism NIR fluorescence screening of dyes (ROI1/ROI2 contrast). The note with it: for visible contrast around the interscapular BAT area: in vivo NIR images; for Ratio AVERAGE (mean ratio ROI1/ROI2): i.v., mean of three filter pairs, hit threshold >1.10. In kind it is in vivo, nude mice. Here is the method: 38 fluorescent dyes from commercial resources and from the inventors' laboratory were screened. Dyes with excitation range of 550-745 nm, emission range of 600-840 nm, and with molecular weight of less than 700 Da (except Cy5.5) (representative dyes are listed in FIG. 1d and the full list is shown in Table 2). Their hydrophobicities were not determined. The library was screened by intravenous tail injection of compounds into nude mice (10μg/mouse). Each dye was imaged with three optimized excitation/emission filter-pairs, and images at one hour after i.v. injection were acquired.
Top-down whole organism screening was performed as follows. Nude mice (nu/nu COX7) were purchased from Massachusetts General Hospital and Balb/c mice were from Jackson Laboratory. All animal experimental procedures were approved by the Institutional Animal Care and Use Committee (IACUC) at Massachusetts General Hospital. Dye stock solutions were prepared in DMSO. The final injection solution (0.1 mg/ml) was freshly prepared in a mixed solution of 20% DMSO, 20% Cremophor EL and 60% saline. Nude mice (n=5) were injected with a 100 μL dye solution via tail vein. For each imaging session, mice were anesthetized with a mixture of oxygen and isoflurane for 5 minutes, and then positioned into the imaging chamber of IVIS® Spectrum in vivo pre-clinical imaging system. Images were acquired at one-hour post-injection using sequence imaging with three excitation/emission filter pairs for each dye.
Hits selection was performed as follows. Hits from cell- or protein-based screening are usually selected by setting certain threshold. In the case of the top-down imaging screening, two methods were used (threshold and visible contrast) to select hits. First, three images obtained with three excitation/emission pairs were selected for each dye. These ex/em pairs were selected from the closest excitation and emission wavelengths of the tested dyes. For instance, 605/660 nm, 605/680 nm, 640/680 nm were selected for image acquisition of Nile blue (625/660 nm). The quantification of contrast for each image was calculated as a ratio of two ROIs (region of interest). ROI1 reflected the average signal from interscapular BAT and ROI2 was the average signal of the area that included BAT and white adipose tissue (WAT) around the interscapular site (FIG. 1b, left). The averaged fluorescent signal of ROI was used instead of the total signal, because the total signal depends on the area of ROI, whereas the averaged signal reflects the density of signal. The ratio of ROI1/ROI2 could reflect the signal/noise ratio of the tested probe, and could also reflect the selectivity of the probe for BAT over WAT. For each dye, three ROI1/ROI2 ratios obtained with the three filter pairs were calculated. The mean of the ratios was used as the threshold. If the mean ratio was >1.10, the dye was selected as a potential positive hit (FIG. 1c). Since the contrast of a dye in the top-down screening is in the visible range, the visible contrast around the interscapular BAT area was also tested for the hits with the mean ratio of >1.10. If both mean ratio and the visible contrast were positive, then the hit was subjected to re-testing procedure to validate its reliability as described below.
Although CRANAD-2 and CRANAD-3 were able to provide certain contrast for BAT in vivo, their excitation and emission wavelengths were still shorter than required for an ideal NIR imaging probe (both excitation and emission >640 nm). […] To seek better probes, a sub-library was synthesized based on the structures of the lead probes CRANAD-2 and -3. CRANAD-6, -19, -22, -24, -26, -32 and -43 were synthesized and tested (images and chemical structures, excitation and emission spectra are shown in FIG. 9 a-e). […] However, the ROI1/ROI2 ratio of CRANAD-22 was not improved (FIG. 9c).

A further series concerns brown adipose cells. As to the kind of experiment: Ex vivo histology of dissected BAT slices. More on the design: species or system mice. The settings on record: fluorescence microscopy. Here is the method:
as §1

The mark [5] stands for this setting: nude mice, one hour post-injection.

Results on two compounds are retold here after patent US9757477B2, “Imaging brown adipose tissue with curcumin derivatives” (The General Hospital Corporation, priority 2013, dated 2017).

Where “and” joins values, the source holds several entries; their conditions need not be identical. Equal entries are not always repeated.

For the compound `F[B-]1(F)OC(/C=C/c2cc3c4c(c2)CCCN4CCC3)=CC(/C=C/c2cc3c4c(c2)CCCN4CCC3)=[O+]1` [CRANAD-29], in the series on interscapular BAT [1] (stepwise dissection), the “F(BAT)/F(intact) ratio compared with CRANAD-2 and -3” value is reported as “much higher”; the “selectivity for BAT (over WAT)” value is listed as “excellent selectivity”. In the series on interscapular BAT [2] (dose optimization), the “injection dose at which fluorescence signal reached its plateau” value turned out to be 0.4 mg/kg. Besides, the “time at which uptake reached plateau after probe injection” value in the series with interscapular BAT [2] (mouse, in vivo, iv) is listed as “around 2 h”. In series [3], the “Emission λ” value amounted to 700 nm and the “Excitation λ” value is 640 nm. Further, in the series with interscapular BAT [4], the “visible contrast around the interscapular BAT area” value is “excellent contrast and a very clear contour of BAT”. For the same compound, the “Ratio AVERAGE (mean ratio ROI1/ROI2)” value in the series with interscapular BAT [4] (setting [5]) came out at 1.36. In the series on brown adipose cells, the “labeling in ex vivo histology of BAT slices” value was “capable of labeling BAT cells”.
For `CN(C)c1ccc(/C=C/C2=CC(=C/C=C3C=CC(=[N+](C)C)C=C3)/O[B-](F)(F)O2)cc1` [CRANAD-2], the “R(BAT), signal contribution from BAT, F(BAT)/F(intact)” value in the series with interscapular BAT [1] (fluorescence after vs before dissection of skin and WAT, roughly estimated) is “about 0.26”. In the series with interscapular BAT [1] (images one hour after probe injection), the “contrast among the re-tested dyes” value was “highest contrast”. Further, in the series on interscapular BAT [1] (stepwise dissection), the “fluorescence signal from BAT (before vs after BAT removal)” value was “able to label BAT” and the “selectivity for BAT (over WAT)” value was “low”. Besides, in the series on interscapular BAT [2] (i.v. injection), the “cleared by” value was at most 720 min, the signal detectable until entry is “at least 180 min” and the “time of uptake peak in BAT area after injection” value is on record as 120 min. In addition, in series [3], the “Emission λ” value is 680 nm and the “Excitation λ” value was found to be 605 nm. For the same compound, the “visible contrast around the interscapular BAT area” value in the series with interscapular BAT [4] is “best contrast and clear triangular contour”. Besides, the “Ratio No 1 (ROI1/ROI2 average fluorescence intensity)” value in the series on interscapular BAT [4] (nude mice, 10 μg/mouse i.v., one hour post-injection, first excitation/emission filter pair) is listed as 1.31E+00. Moreover, the “Ratio No 2 (ROI1/ROI2 average fluorescence intensity)” value with interscapular BAT [4] (nude mice, 10 μg/mouse i.v., one hour post-injection, second excitation/emission filter pair) is recorded as 1.26E+00. The “Ratio No 3 (ROI1/ROI2 average fluorescence intensity)” value with interscapular BAT [4] (nude mice, 10 μg/mouse i.v., one hour post-injection, third excitation/emission filter pair) stood at 1.26E+00. Also, in the series with interscapular BAT [4] (setting [5]), the “Ratio AVERAGE (mean ratio ROI1/ROI2)” value was 1.28 and 1.28E+00. Moreover, the “labeling in ex vivo histology of BAT slices” value in the series with brown adipose cells is “labeled oil droplets in brown adipose cells”.
